Laboratory results from ChEMBL document CHEMBL4680171, “Oxadiazolylthiazoles as novel and selective antifungal agents” (Eur J Med Chem, 2020).
Converted amounts (≈) assume the structure as drawn.

Key:
Format in all cases: functional
[1] = tested on: Staphylococcus aureus; assay: Antibacterial activity against methicillin resistant Staphylococcus aureus subsp. aureus USA300 assessed as reduction in bacterial growth by CLSI based broth microdilution method
[2] = tested on: Clostridioides difficile; assay: Antibacterial activity against Clostridium difficile BAA1870 assessed as reduction in bacterial growth by CLSI based broth microdilution method
[3] = tested on: Candida albicans; assay: Antifungal activity against Candida albicans SS5314 assessed as reduction in fungal growth by CLSI based broth microdilution method
[4] = tested on: Escherichia coli; assay: Antibacterial activity against Escherichia coli JW55031 harboring tolC mutation assessed as reduction in bacterial growth by CLSI based broth microdilution method
[5] = tested on: Escherichia coli; assay: Antibacterial activity against Escherichia coli BW25113 assessed as reduction in bacterial growth by CLSI based broth microdilution method

| Compound | MIC [1] | MIC [2] | MIC [3] | MIC [4] | MIC [5] |
| --- | --- | --- | --- | --- | --- |
| Cc1nc(-c2ccc(C(C)(C)C)cc2)sc1-c1nnc(NC[C@H](O)CO)o1 | > 64 µg/mL | 16 µg/mL (≈ 41.2 µM) | > 64 µg/mL | 32 µg/mL (≈ 82.4 µM) | > 64 µg/mL |
| Cc1nc(-c2ccc(C(C)(C)C)cc2)sc1-c1nnc(N2CC[C@@H](N(C)C)C2)o1 | > 64 µg/mL | > 64 µg/mL | > 64 µg/mL | > 64 µg/mL | > 64 µg/mL |
| GENTAMICIN | – | – | – | < 0.5 µg/mL | < 0.5 µg/mL |
| Cc1nc(-c2ccc(C(C)(C)C)cc2)sc1-c1nnc(N2CCC[C@H]2CO)o1 | > 64 µg/mL | 16 µg/mL (≈ 40.1 µM) | > 64 µg/mL | > 64 µg/mL | > 64 µg/mL |
| Cc1nc(-c2ccc(C(C)(C)C)cc2)sc1-c1nnc(NCC(=N)N)o1 | > 64 µg/mL | 64 µg/mL (≈ 173 µM) | > 64 µg/mL | > 64 µg/mL | > 64 µg/mL |
| Cc1nc(-c2ccc(C(C)(C)C)cc2)sc1-c1nnc(N[C@H]2CC[C@H](N)CC2)o1 | 32 µg/mL (≈ 77.8 µM) | 8 µg/mL (≈ 19.4 µM) | 8 µg/mL (≈ 19.4 µM) | 32 µg/mL (≈ 77.8 µM) | > 64 µg/mL |
